In patent US20220167615A1, “FUNGICIDAL COMPOSITIONS” (SYNGENTA CROP PROTECTION AG, priority 2019, published 2022):
Like-named read-outs stand apart in the source and are kept apart here.

How the values were obtained:
[1] = test system: Botryotinia fuckeliana (Botrytis cinerea); experiment: Botryotinia fuckeliana (Botrytis cinerea) / liquid culture (Gray mould); type: cell-based; details: read-out: disease control (inhibition of growth, photometric)
Phakopsora pachyrhizi = Phakopsora pachyrhizi / soybean / leaf disc preventative (Asian soybean rust); type: in vivo; details: foliar, read-out: percent disease control compared to untreated
[2] = test system: Mycosphaerella graminicola (Septoria tritici); experiment: Mycosphaerella graminicola (Septoria tritici) / liquid culture (Septoria blotch); type: cell-based; details: Zymoseptoria tritici, read-out: disease control (inhibition of growth, photometric)
[3] = test system: Mycosphaerella arachidis (Cercospora arachidicola); experiment: Mycosphaerella arachidis (Cercospora arachidicola) / liquid culture (early leaf spot); type: cell-based; details: read-out: disease control (inhibition of growth, photometric)
[4] = test system: Glomerella lagenarium (Colletotrichum lagenarium); experiment: Glomerella lagenarium (Colletotrichum lagenarium) / liquid culture (Anthracnose); type: cell-based; details: Colletotrichum orbiculare, read-out: disease control (inhibition of growth, photometric)
[5] = test system: Puccinia recondita f. sp. tritici; experiment: Puccinia recondita f. sp. tritici / wheat / leaf disc preventative (Brown rust); type: in vivo; details: foliar, read-out: percent disease control compared to untreated
[6] = test system: Monographella nivalis (Microdochium nivale); experiment: Monographella nivalis (Microdochium nivale) / liquid culture (foot rot cereals); type: cell-based; details: read-out: disease control (inhibition of growth, photometric)
[7] = test system: Phaeosphaeria nodorum (Septoria nodorum); experiment: Phaeosphaeria nodorum (Septoria nodorum) / wheat / leaf disc preventative (Glume blotch); type: in vivo; details: Parastagonospora nodorum, foliar, read-out: percent disease control compared to untreated
[8] = test system: Magnaporthe grisea (Pyricularia oryzae); experiment: whole plant or invertebrate; type: in vivo; details: foliar, read-out: percent disease control compared to untreated
[9] = 20 ppm in the applied formulation, Vogels broth, 24° C., 3-4 days after application, vs untreated control
[10] = 200 ppm in the applied formulation, soybean leaf disks, inoculated one day after application, assessed 12 to 14 days after application
[11] = 20 ppm in the applied formulation, PDB, 24° C., 4 to 5 days after application, vs untreated control
[12] = 20 ppm in the applied formulation, PDB, 24° C., 4-5 days after application, vs untreated control
[13] = 20 ppm in the applied formulation, PDB, 24° C., 3 to 4 days after application, vs untreated control
[14] = 200 ppm in the applied formulation, wheat leaf segments cv. Kanzler, inoculated 1 day after application, assessed 7-9 days after application
[15] = 200 ppm in the applied formulation, wheat leaf segments cv. Kanzler, inoculated 2 days after application, assessed 5-7 days after application

COc1ccnc(C(=O)N[C@@H](C)C(=O)OC(C)C(C)n2ccc3c(Br)ccc(F)c32)c1O (stereo partly drawn) [X.02, [2-(4-bromo-7-fluoro-indol-1-yl)-1-methyl-propyl] (2S)-2-[(3-hydroxy-4-methoxy-pyridine-2-carbonyl)amino]propanoate]
≥ 80%: inhibition at 20 ppm [1, 9] | pest or weed control at 200 ppm (Phakopsora pachyrhizi; [10]) | inhibition at 20 ppm [2, 11] | inhibition at 20 ppm [3, 12] | inhibition at 20 ppm [4, 13] | pest or weed control at 200 ppm [5, 14] | inhibition at 20 ppm [6, 12]

COc1ccnc(C(=O)N[C@@H](C)C(=O)O[C@@H](C)C2(c3cccc4ccccc34)CC2)c1OCOC(=O)C(C)C [X.07, [4-methoxy-2-[[(1S)-1-methyl-2-[(1S)-1-[1-(1-naphthyl)cyclopropyl]ethoxy]-2-oxo-ethyl]carbamoyl]-3-pyridyl]oxymethyl 2-methylpropanoate]
≥ 80%: inhibition at 20 ppm [2, 11] | pest or weed control at 200 ppm [7, 15] | inhibition at 20 ppm [3, 12] | inhibition at 20 ppm [4, 13] | pest or weed control at 200 ppm [8] | pest or weed control at 200 ppm [5, 14]

COc1ccnc(C(=O)N[C@@H](C)C(=O)OC(C)C(C)n2ccc3c(F)ccc(Br)c32)c1OC(C)=O (stereo partly drawn) [X.16, [2-(7-bromo-4-fluoro-indol-1-yl)-1-methyl-propyl] (2S)-2-[(3-acetoxy-4-methoxy-pyridine-2-carbonyl)amino]propanoate]
≥ 80%: pest or weed control at 200 ppm (Phakopsora pachyrhizi; [10]) | inhibition at 20 ppm [2, 11] | inhibition at 20 ppm [3, 12] | inhibition at 20 ppm [4, 13] | pest or weed control at 200 ppm [5, 14] | inhibition at 20 ppm [6, 12]

COc1ccnc(C(=O)N[C@@H](C)C(=O)OC(C)C(C)n2ccc3ccc(C(F)(F)F)cc32)c1O (stereo partly drawn) [X.12, [1-methyl-2-[6-(trifluoromethyl)indol-1-yl]propyl] (2S)-2-[(3-hydroxy-4-methoxy-pyridine-2-carbonyl)amino]propanoate]
≥ 80%: inhibition at 20 ppm [1, 9] | inhibition at 20 ppm [2, 11] | inhibition at 20 ppm [3, 12] | inhibition at 20 ppm [4, 13] | pest or weed control at 200 ppm [8] | pest or weed control at 200 ppm [5, 14] | inhibition at 20 ppm [6, 12]

COc1ccnc(C(=O)N[C@@H](C)C(=O)OC(C)C(C)c2ccc3ccccc3n2)c1O (stereo partly drawn) [X.10, [1-methyl-2-(2-quinolyl)propyl] (2S)-2-[(3-hydroxy-4-methoxy-pyridine-2-carbonyl)amino]propanoate]
≥ 80%: inhibition at 20 ppm [1, 9] | inhibition at 20 ppm [2, 11] | inhibition at 20 ppm [4, 13] | pest or weed control at 200 ppm [5, 14] | inhibition at 20 ppm [6, 12]

COc1ccnc(C(=O)N[C@@H](C)C(=O)OC(C)C(C)c2ncc(Cl)cc2Cl)c1O (stereo partly drawn) [X.03, [2-(3,5-dichloro-2-pyridyl)-1-methyl-propyl] (2S)-2-[(3-hydroxy-4-methoxy-pyridine-2-carbonyl)amino]propanoate]
≥ 80%: inhibition at 20 ppm [1] | pest or weed control at 200 ppm (Phakopsora pachyrhizi) | inhibition at 20 ppm [2] | pest or weed control at 200 ppm [7] | inhibition at 20 ppm [3] | inhibition at 20 ppm [4] | pest or weed control at 200 ppm [5] | inhibition at 20 ppm [6]

COc1ccnc(C(=O)N[C@@H](C)C(=O)O[C@@H](C)C2(c3cccc4ccccc34)CC2)c1O [X.05, [(1S)-1-[1-(1-naphthyl)cyclopropyl]ethyl] (2S)-2-[(3-hydroxy-4-methoxy-pyridine-2-carbonyl)amino]propanoate]
≥ 80%: inhibition at 20 ppm [1, 9] | pest or weed control at 200 ppm (Phakopsora pachyrhizi; [10]) | inhibition at 20 ppm [2, 11] | pest or weed control at 200 ppm [7, 15] | inhibition at 20 ppm [3, 12] | inhibition at 20 ppm [4, 13] | pest or weed control at 200 ppm [8] | pest or weed control at 200 ppm [5, 14] | inhibition at 20 ppm [6, 12]

COc1ccnc(C(=O)N[C@@H](C)C(=O)OC(C)C2(c3ccccc3)CCCCC2)c1O (stereo partly drawn) [X.09, 1-(1-phenylcyclohexyl)ethyl (2S)-2-[(3-hydroxy-4-methoxy-pyridine-2-carbonyl)amino]propanoate]
≥ 80%: inhibition at 20 ppm [1, 9] | inhibition at 20 ppm [2, 11] | inhibition at 20 ppm [3, 12] | inhibition at 20 ppm [4, 13] | pest or weed control at 200 ppm [8] | pest or weed control at 200 ppm [5, 14] | inhibition at 20 ppm [6, 12]

COc1ccnc(C(=O)N[C@@H](C)C(=O)O[C@@H](C)C2(c3cccc4ccccc34)CC2)c1OC(C)=O [X.17, [(1S)-1-[1-(1-naphthyl)cyclopropyl]ethyl] (2S)-2-[(3-acetoxy-4-methoxy-pyridine-2-carbonyl)amino]propanoate]
≥ 80%: inhibition at 20 ppm [1, 9] | pest or weed control at 200 ppm (Phakopsora pachyrhizi; [10]) | inhibition at 20 ppm [2, 11] | pest or weed control at 200 ppm [7, 15] | inhibition at 20 ppm [3, 12] | inhibition at 20 ppm [4, 13] | pest or weed control at 200 ppm [8] | pest or weed control at 200 ppm [5, 14] | inhibition at 20 ppm [6, 12]

COc1ccnc(C(=O)N[C@@H](C)C(=O)OC(C)C(C)(C)c2ccc(Br)cc2)c1O (stereo partly drawn) [X.08, [2-(4-bromophenyl)-1,2-dimethyl-propyl] (2S)-2-[(3-hydroxy-4-methoxy-pyridine-2-carbonyl)amino]propanoate]
≥ 80%: inhibition at 20 ppm [1, 9] | inhibition at 20 ppm [2, 11] | inhibition at 20 ppm [3, 12] | inhibition at 20 ppm [4, 13] | pest or weed control at 200 ppm [8] | pest or weed control at 200 ppm [5, 14] | inhibition at 20 ppm [6, 12]

COc1ccnc(C(=O)N[C@@H](C)C(=O)OC(C)C(C)n2ncc3ccccc32)c1O (stereo partly drawn) [X.13, (2-indazol-1-yl-1-methyl-propyl) (2S)-2-[(3-hydroxy-4-methoxy-pyridine-2-carbonyl)amino]propanoate]
≥ 80%: inhibition at 20 ppm [2, 11]

COc1ccnc(C(=O)N[C@@H](C)C(=O)OC(C)C(C)c2ncc(Cl)cc2Cl)c1OCOC(=O)C(C)C (stereo partly drawn) [X.06, [2-[[(1S)-2-[2-(3,5-dichloro-2-pyridyl)-1-methyl-propoxy]-1-methyl-2-oxo-ethyl]carbamoyl]-4-methoxy-3-pyridyl]oxymethyl 2-methylpropanoate]
≥ 80%: pest or weed control at 200 ppm (Phakopsora pachyrhizi; [10]) | inhibition at 20 ppm [2, 11] | inhibition at 20 ppm [3, 12] | pest or weed control at 200 ppm [5, 14] | inhibition at 20 ppm [6, 12]

COc1ccnc(C(=O)N[C@@H](C)C(=O)O[C@@H](C)C2(c3cccc4ccccc34)CC2)c1OCOC(C)=O [X.04, [(1S)-1-[1-(1-naphthyl)cyclopropyl]ethyl] (2S)-2-[[3-(acetoxymethoxy)-4-methoxy-pyridine-2-carbonyl]amino]propanoate]
≥ 80%: pest or weed control at 200 ppm (Phakopsora pachyrhizi; [10]) | inhibition at 20 ppm [2, 11] | pest or weed control at 200 ppm [7, 15] | inhibition at 20 ppm [3, 12] | inhibition at 20 ppm [4, 13] | pest or weed control at 200 ppm [8] | pest or weed control at 200 ppm [5, 14] | inhibition at 20 ppm [6, 12]

COc1ccnc(C(=O)N[C@@H](C)C(=O)OC(C)C(C)n2ccc3cccc(Br)c32)c1O (stereo partly drawn) [X.11, [2-(7-bromoindol-1-yl)-1-methyl-propyl] (2S)-2-[(3-hydroxy-4-methoxy-pyridine-2-carbonyl)amino]propanoate]
≥ 80%: pest or weed control at 200 ppm (Phakopsora pachyrhizi; [10]) | inhibition at 20 ppm [2, 11] | inhibition at 20 ppm [3, 12] | inhibition at 20 ppm [4, 13] | pest or weed control at 200 ppm [5, 14] | inhibition at 20 ppm [6, 12]

COc1ccnc(C(=O)N[C@@H](C)C(=O)OC(C)C(C)c2ccc(Cl)s2)c1O (stereo partly drawn) [X.14, [2-(5-chloro-2-thienyl)-1-methyl-propyl] (2S)-2-[(3-hydroxy-4-methoxy-pyridine-2-carbonyl)amino]propanoate]
≥ 80%: inhibition at 20 ppm [1, 9] | inhibition at 20 ppm [2, 11] | inhibition at 20 ppm [3, 12] | inhibition at 20 ppm [4, 13] | pest or weed control at 200 ppm [5, 14] | inhibition at 20 ppm [6, 12]

COc1ccnc(C(=O)N[C@@H](C)C(=O)OC(C)C2(c3ccc(Cl)cc3)CCC2)c1O (stereo partly drawn) [X.01, 1-[1-(4-chlorophenyl)cyclobutyl]ethyl(2S)-2-[(3-hydroxy-4-methoxy-pyridine-2-carbonyl)amino]propanoate]
≥ 80%: inhibition at 20 ppm [1, 9] | inhibition at 20 ppm [2, 11] | inhibition at 20 ppm [3, 12] | inhibition at 20 ppm [4, 13] | pest or weed control at 200 ppm [5, 14] | inhibition at 20 ppm [6, 12]

COc1ccnc(C(=O)N[C@@H](C)C(=O)OC(C)C(C)n2ccc3c(Cl)ccc(Cl)c32)c1OC(C)=O (stereo partly drawn) [X.15, [2-(4,7-dichloroindol-1-yl)-1-methyl-propyl] (2S)-2-[(3-acetoxy-4-methoxy-pyridine-2-carbonyl)amino]propanoate]
≥ 80%: inhibition at 20 ppm [2, 11] | inhibition at 20 ppm [3, 12] | inhibition at 20 ppm [4, 13] | pest or weed control at 200 ppm [5, 14] | inhibition at 20 ppm [6, 12]
